Results on four compounds are retold here after paper PMC7305236, “The atypical chemokine receptor ACKR3/CXCR7 is a broad-spectrum scavenger for opioid peptides” (Nature Communications, 2020).

The structures appear in SMILES notation. Read-outs that look alike come from different tables or passages of the source.

Parameters in all cases: dose or concentration left out as unconfirmed
One experiment addresses T1, CCR9 (Homo sapiens, UniProt P51686).
T1 construct: expressed in transfected cells
T1 sequence (P51686 1-369): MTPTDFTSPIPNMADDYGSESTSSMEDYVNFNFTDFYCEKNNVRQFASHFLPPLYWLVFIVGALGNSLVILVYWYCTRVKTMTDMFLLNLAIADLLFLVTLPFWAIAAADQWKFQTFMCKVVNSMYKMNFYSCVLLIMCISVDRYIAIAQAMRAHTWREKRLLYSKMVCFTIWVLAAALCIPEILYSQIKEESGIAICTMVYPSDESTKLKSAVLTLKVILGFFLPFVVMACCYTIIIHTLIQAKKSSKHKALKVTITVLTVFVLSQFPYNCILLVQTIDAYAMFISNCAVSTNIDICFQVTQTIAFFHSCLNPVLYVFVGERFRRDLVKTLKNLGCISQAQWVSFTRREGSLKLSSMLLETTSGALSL
Kind of experiment: Figure S2a opioid peptide screen on chemokine receptors. In kind it is cell-based.

Another experiment concerns the target ACKR3 (Homo sapiens, UniProt P25106). The experiment can be described thus: cell-based. Particulars: read-out: ACKR3 activity, ctrl+ = 100, Figure S2a.
In a further experiment the target is T2, CCR10 (Homo sapiens, UniProt P46092).
T2 construct: expressed in transfected cells
T2 sequence (P46092 1-362): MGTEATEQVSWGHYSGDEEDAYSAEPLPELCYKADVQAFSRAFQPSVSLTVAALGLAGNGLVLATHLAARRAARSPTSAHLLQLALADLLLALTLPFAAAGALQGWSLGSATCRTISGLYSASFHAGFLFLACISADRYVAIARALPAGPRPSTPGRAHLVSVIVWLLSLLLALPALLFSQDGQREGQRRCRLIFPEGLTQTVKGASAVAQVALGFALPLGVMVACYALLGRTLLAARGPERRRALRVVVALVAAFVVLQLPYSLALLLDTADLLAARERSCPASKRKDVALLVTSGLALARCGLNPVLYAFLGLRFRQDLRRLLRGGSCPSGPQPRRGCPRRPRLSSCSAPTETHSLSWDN
The experiment can be described thus: Figure S2a opioid peptide screen on chemokine receptors. It counts as cell-based.

In the next experiment the target is CCR8 (Homo sapiens, UniProt P51685). Described as above. The conditions noted are these: read-out: CCR8 activity, ctrl+ = 100, Figure S2a.
Another experiment addresses T3, CCR3 (Homo sapiens, UniProt P51677).
T3 sequence (P51677 1-355): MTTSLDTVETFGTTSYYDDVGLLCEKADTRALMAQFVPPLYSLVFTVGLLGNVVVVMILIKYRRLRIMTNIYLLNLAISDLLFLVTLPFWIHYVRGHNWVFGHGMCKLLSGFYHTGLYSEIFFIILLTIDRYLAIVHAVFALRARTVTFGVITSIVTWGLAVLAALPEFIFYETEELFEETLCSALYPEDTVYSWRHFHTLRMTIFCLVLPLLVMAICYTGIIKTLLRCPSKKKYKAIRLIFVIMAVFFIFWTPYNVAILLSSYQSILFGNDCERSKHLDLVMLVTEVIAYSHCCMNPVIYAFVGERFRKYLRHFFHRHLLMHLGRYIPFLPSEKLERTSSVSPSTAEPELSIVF
Described as above. Particulars: read-out: CCR3 activity, ctrl+ = 100, Figure S2a.

Another experiment has as its target T4, ACKR4 (Homo sapiens, UniProt Q9NPB9).
T4 sequence (Q9NPB9 1-350): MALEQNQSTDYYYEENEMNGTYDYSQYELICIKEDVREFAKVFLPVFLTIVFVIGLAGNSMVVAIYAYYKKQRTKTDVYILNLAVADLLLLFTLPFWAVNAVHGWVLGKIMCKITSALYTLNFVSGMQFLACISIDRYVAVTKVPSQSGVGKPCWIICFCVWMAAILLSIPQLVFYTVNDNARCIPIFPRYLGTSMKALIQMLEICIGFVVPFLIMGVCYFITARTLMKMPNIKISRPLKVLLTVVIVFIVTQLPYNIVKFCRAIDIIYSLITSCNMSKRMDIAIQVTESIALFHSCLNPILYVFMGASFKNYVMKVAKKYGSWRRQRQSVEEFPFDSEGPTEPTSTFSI
The description is as above. The conditions noted are these: read-out: ACKR4 activity, ctrl+ = 100, Figure S2a.

Another experiment concerns the target T5, CXCR6 (Homo sapiens, UniProt O00574).
T5 construct: expressed in transfected cells
The description is as above. In kind it is cell-based.

Another experiment has as its target T6, CXCR1 (Homo sapiens, UniProt P25024).
T6 construct: expressed in transfected cells
T6 sequence (P25024 1-350): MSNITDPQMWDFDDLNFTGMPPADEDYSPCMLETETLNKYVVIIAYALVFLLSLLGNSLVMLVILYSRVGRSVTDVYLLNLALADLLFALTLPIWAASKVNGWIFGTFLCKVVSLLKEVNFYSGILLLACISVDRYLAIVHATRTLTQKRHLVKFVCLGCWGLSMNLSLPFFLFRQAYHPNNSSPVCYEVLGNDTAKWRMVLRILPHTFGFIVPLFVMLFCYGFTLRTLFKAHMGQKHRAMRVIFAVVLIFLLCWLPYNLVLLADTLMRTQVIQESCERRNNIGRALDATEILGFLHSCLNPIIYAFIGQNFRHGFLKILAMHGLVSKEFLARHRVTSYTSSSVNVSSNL
The experiment is described as above. In kind it is cell-based.

The mark [1] stands for this setting: replicate 1, read-out: CCR9 activity, ctrl+ = 100.
Where [2] appears, read: replicate 2, read-out: CCR9 activity, ctrl+ = 100.
Where [3] appears, read: replicate 3, read-out: CCR9 activity, ctrl+ = 100.
The mark [4] stands for this setting: replicate 1, read-out: CCR10 activity, ctrl+ = 100.
The mark [5] stands for this setting: replicate 2, read-out: CCR10 activity, ctrl+ = 100.
[6] abbreviates: replicate 3, read-out: CCR10 activity, ctrl+ = 100.
[7] abbreviates: replicate 1, read-out: CXCR6 activity, ctrl+ = 100.
Setting [8] is: replicate 2, read-out: CXCR6 activity, ctrl+ = 100.
The mark [9] stands for this setting: replicate 3, read-out: CXCR6 activity, ctrl+ = 100.
Where [10] appears, read: replicate 1, read-out: CXCR1 activity, ctrl+ = 100.
Setting [11] is: replicate 2, read-out: CXCR1 activity, ctrl+ = 100.
The mark [12] stands for this setting: replicate 3, read-out: CXCR1 activity, ctrl+ = 100.

Chain of ACKR3 (P25106 whole entry): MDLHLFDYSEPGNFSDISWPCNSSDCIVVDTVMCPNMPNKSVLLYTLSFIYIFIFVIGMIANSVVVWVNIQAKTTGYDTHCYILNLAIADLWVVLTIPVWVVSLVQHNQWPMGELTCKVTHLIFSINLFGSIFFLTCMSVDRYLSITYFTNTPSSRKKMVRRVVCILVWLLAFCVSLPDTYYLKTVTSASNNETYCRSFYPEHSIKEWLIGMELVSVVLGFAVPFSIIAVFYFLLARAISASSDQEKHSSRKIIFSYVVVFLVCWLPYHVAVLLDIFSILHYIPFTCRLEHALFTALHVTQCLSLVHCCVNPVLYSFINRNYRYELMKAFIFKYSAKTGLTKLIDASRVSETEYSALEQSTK
Chain of CCR8 (P51685 whole entry): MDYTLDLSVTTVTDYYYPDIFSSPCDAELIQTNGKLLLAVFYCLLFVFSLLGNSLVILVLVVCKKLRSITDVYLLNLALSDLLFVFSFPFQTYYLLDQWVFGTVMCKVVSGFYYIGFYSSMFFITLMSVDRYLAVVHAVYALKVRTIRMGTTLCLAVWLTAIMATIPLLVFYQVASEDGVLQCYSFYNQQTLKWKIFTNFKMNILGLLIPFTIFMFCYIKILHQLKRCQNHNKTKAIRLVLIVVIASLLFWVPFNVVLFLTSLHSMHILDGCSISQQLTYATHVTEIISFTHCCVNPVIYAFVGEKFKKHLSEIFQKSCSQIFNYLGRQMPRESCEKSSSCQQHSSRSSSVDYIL
T5 sequence (O00574 whole entry): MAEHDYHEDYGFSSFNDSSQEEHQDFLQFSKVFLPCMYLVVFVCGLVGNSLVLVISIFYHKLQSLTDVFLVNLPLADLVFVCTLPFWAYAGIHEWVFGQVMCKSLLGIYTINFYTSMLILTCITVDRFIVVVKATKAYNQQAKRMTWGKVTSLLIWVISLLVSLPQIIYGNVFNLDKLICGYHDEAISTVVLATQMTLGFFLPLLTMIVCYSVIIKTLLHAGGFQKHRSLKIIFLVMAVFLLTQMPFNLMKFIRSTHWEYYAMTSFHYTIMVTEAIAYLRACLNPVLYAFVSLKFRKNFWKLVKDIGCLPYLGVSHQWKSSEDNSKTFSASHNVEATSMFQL

As for `CSCC[C@H](NC(=O)[C@H](Cc1ccccc1)NC(=O)CNC(=O)CNC(=O)[C@@H](N)Cc1ccc(O)cc1)C(=O)N[C@@H](CCCNC(=N)N)C(=O)N[C@@H](CCCNC(=N)N)C(=O)N[C@H](C(N)=O)C(C)C` [Adrenorphin], the activation on CCR9 (setting [1]) was 0.345%; on CCR9 (setting [2]) it was -0.997%; on CCR9 (setting [3]), 2.74%; on ACKR3 (replicate 1), 111%; on ACKR3 (replicate 2) it was 55.3%; at ACKR3 (replicate 3), 84.5%. The activation is 1.18% on CCR10 (setting [4]); -7.52% on CCR10 (setting [5]); -2% at CCR10 (setting [6]); -17.4% at CCR8 (replicate 1); -15.7% on CCR8 (replicate 2); -4% on CCR8 (replicate 3). The activation is 10.9% on CCR3 (replicate 1); -10.8% on CCR3 (replicate 2); 23.6% on CCR3 (replicate 3); -1.94% on ACKR4 (replicate 1); -1.88% on ACKR4 (replicate 2); -0.895% on ACKR4 (replicate 3). Further, the activation at CXCR6 (setting [7]) was 0.866%; at CXCR6 (setting [8]) it was -0.941%; at CXCR6 (setting [9]) it was -0.716%; at CXCR1 (setting [10]) it was 0.451%; at CXCR1 (setting [11]), 0.739%; at CXCR1 (setting [12]) it was -0.427%.
Turning to `CSCC[C@H](NC(=O)[C@H](Cc1ccccc1)NC(=O)CNC(=O)CNC(=O)[C@@H](N)Cc1ccc(O)cc1)C(=O)N[C@@H](CCCNC(=N)N)C(=O)N[C@@H](CCCNC(=N)N)C(=O)N[C@H](C(=O)NCC(=O)N[C@@H](CCCNC(=N)N)C(=O)N1CCC[C@H]1C(=O)N[C@@H](CCC(=O)O)C(=O)N[C@@H](Cc1c[nH]c2ccccc12)C(=O)N[C@@H](Cc1c[nH]c2ccccc12)C(=O)N[C@@H](CCSC)C(=O)N[C@@H](CC(=O)O)C(=O)N[C@@H](Cc1ccc(O)cc1)C(=O)N[C@@H](CCC(N)=O)C(=O)N[C@@H](CCCCN)C(=O)N[C@@H](CCCNC(=N)N)C(=O)N[C@@H](Cc1ccc(O)cc1)C(=O)NCC(=O)O)C(C)C` [BAM22], the activation at CCR9 (setting [1]) is -0.202%; on CCR9 (setting [2]), -2.13%; at CCR9 (setting [3]), 5.56%; at ACKR3 (replicate 1), 104%; on ACKR3 (replicate 2), 61.3%; at ACKR3 (replicate 3), 104%. Moreover, the activation at CCR10 (setting [4]) is -2.23%; at CCR10 (setting [5]), -4.92%; at CCR10 (setting [6]), -3.25%; on CCR8 (replicate 1) it was -18.7%; at CCR8 (replicate 2), -21.3%; at CCR8 (replicate 3), -4.1%. Moreover, the activation is 5.68% at CCR3 (replicate 1); -4.83% on CCR3 (replicate 2); 17.9% on CCR3 (replicate 3); -4.56% at ACKR4 (replicate 1); -1.96% on ACKR4 (replicate 2); 5.51% on ACKR4 (replicate 3). The activation on CXCR6 (setting [7]) is -0.237%; on CXCR6 (setting [8]), -0.939%; at CXCR6 (setting [9]), -1.21%; at CXCR1 (setting [10]), 0.211%; at CXCR1 (setting [11]) it was 0.0913%; on CXCR1 (setting [12]), -0.539%.
As to `CC[C@H](C)[C@H](NC(=O)[C@H](CCCNC(=N)N)NC(=O)[C@H](CCCNC(=N)N)NC(=O)[C@H](CC(C)C)NC(=O)[C@H](Cc1ccccc1)NC(=O)CNC(=O)CNC(=O)[C@@H](N)Cc1ccc(O)cc1)C(=O)N[C@@H](CCCNC(=N)N)C(=O)N1CCC[C@H]1C(=O)N[C@@H](CCCCN)C(=O)N[C@@H](CC(C)C)C(=O)N[C@@H](CCCCN)C(=O)O` [Dynorphin 1-13], the activation was -2.31% on CCR9 (setting [1]); -1.58% at CCR9 (setting [2]); 136% at ACKR3 (replicate 1); 52.9% at ACKR3 (replicate 2); -2.25% on CCR10 (setting [4]); -4.52% on CCR10 (setting [5]). For the same compound, the activation on CCR8 (replicate 2) is -19.6%; on CCR3 (replicate 1), 5.05%; on CCR3 (replicate 2), -11.6%; on ACKR4 (replicate 1) it was -2%; at ACKR4 (replicate 2), -4.85%; at CXCR6 (setting [7]), 0.0731%. For the same compound, the values for the activation at CXCR6 (setting [8]), at CXCR1 (setting [10]) and at CXCR1 (setting [11]) were -1.13%, 0.218% and -1.21%, respectively.
`CC[C@H](C)[C@H](NC(=O)[C@H](CCCNC(=N)N)NC(=O)[C@H](CCCNC(=N)N)NC(=O)[C@H](CC(C)C)NC(=O)[C@H](Cc1ccccc1)NC(=O)CNC(=O)CN)C(=O)N[C@@H](CCCNC(=N)N)C(=O)N1CCC[C@H]1C(=O)N[C@@H](CCCCN)C(=O)N[C@@H](CC(C)C)C(=O)N[C@@H](CCCCN)C(=O)N[C@@H](Cc1c[nH]c2ccccc12)C(=O)N[C@@H](CC(=O)O)C(=O)N[C@@H](CC(N)=O)C(=O)N[C@@H](CCC(N)=O)C(=O)O` [Dynorphin 2-17]: the activation is 1.95% on CCR9 (setting [1]); 0.179% on CCR9 (setting [2]); 72.7% on ACKR3 (replicate 1); 26.1% on ACKR3 (replicate 2); 0.214% on CCR10 (setting [4]); -5.55% on CCR10 (setting [5]). Besides, the activation on CCR8 (replicate 1) is -6.57%; at CCR8 (replicate 2) it was 0.623%; at CCR3 (replicate 1) it was 12.7%; on CCR3 (replicate 2) it was -19.1%; on ACKR4 (replicate 1), -1.91%; at ACKR4 (replicate 2), -4.71%. In addition, the activation at CXCR6 (setting [7]) is -0.523%; on CXCR6 (setting [8]), -1.13%; on CXCR1 (setting [10]) it was 0.572%; at CXCR1 (setting [11]) it was 0.136%.
